In US8642620B2, “Heteroaryl-substituted amides comprising an unsaturated or cyclic linker group, and their use as pharmaceuticals” (Sanofi, priority 2005, dated 2014):
Structures can show the parent of a compound that is named as a salt.

What was measured:
eNOS promoter = experiment: Activation of eNOS transcription (eNOS promoter-luciferase reporter gene assay); assay type: cell-based; settings: human endothelial cell line stably transfected with eNOS promoter-luciferase construct; 18 h incubation; EC50 determined graphically; read-out: EC50 values of transcription induction ratios (TIR)
Procedure: Activation of eNOS transcription was measured as described in detail by Li et al., “Activation of protein kinase C alpha and/or epsilon enhances transcription of the human endothelial nitric oxide synthase gene”, Mol. Pharmacol. 53 (1998) 630. Briefly, a 3.5 kB long fragment 5′ of the starting codon of the eNOS gene was cloned, sequenced and cloned in firefly luciferase expression plasmids to monitor activation of the eNOS promoter by reporter gene activity. A human endothelial cell line stable transfected and expressing this promoter-reporter construct was used for compound testing. Cells were incubated for 18 h with the compounds.
All compounds were dissolved in sterile dimethyl sulfoxide (DMSO). A final concentration of 0.5% DMSO in complete medium was allowed. Induction of reporter gene expression in these cells was measured using a standard luciferase assay system (Promega, Cat. No. E150) according to the manufacturer's instructions. Luciferase induction in cells incubated with compounds were compared to those incubated with solvent alone. The ratio of both activities (transcription induction ratio, TIR) was plotted as a function of compound concentration. Typically, TIR values started at low concentrations at a ratio of 1, indicating no compound effect, and extended up to a maximum TIR value TIR(max) which indicates the increase of the eNOS transcription. EC50 values of transcription induction ratios as a function of compound concentration were determined graphically.

EC50 (eNOS promoter)	melting point	Compound
500 to 5000 nM		O=c1ccccn1C/C=C/c1nc(-c2ccc(F)cc2)cs1 [Example 3, 1-(3-(4-(4-Fluorophenyl)thiazol-2-yl)allyl)-1H-pyridin-2-one]
500 to 5000 nM		CC1(C)NC(=O)N(C/C=C/c2ccc(-c3ccc(F)cc3)nc2)C1=O [Example 11, 3-(3-(6-(4-Fluorophenyl)pyridin-3-yl)allyl)-5,5-dimethylimidazolidine-2,4-dione trifluoroacetic acid salt]
500 to 5000 nM		O=C1CCCC(=O)N1CC#Cc1ccc(-c2ccccc2F)nc1 [Example 2, 1-(3-(6-(2-Fluorophenyl)pyridin-3-yl)prop-2-ynyl)piperidine-2,6-dione trifluoroacetic acid salt]
< 500 nM	172 °C	O=C1CNC(=O)N1C1CC1c1ccc(-c2ccc(F)c(Cl)c2)nc1 (racemic) [Example 21, 3-((E)-2-(6-(3-Chloro-4-fluorophenyl)pyridin-3-yl)cyclopropyl)imidazolidine-2,4-dione]
